# Measurements published in patent US8778963B2, “Hydroxylamine and oxime substituted imidazoquinolines, imidazopyridines, and imidazonaphthyridines” (3M Innovative Properties Company, priority 2003, dated 2014).
# Structures can show the parent of a compound that is named as a salt.
row,SMILES,melting point [°C]
1,"CCOCc1nc2c(N)nc3ccccc3c2n1CCCC(C)=NOC (as salt: hydrochloride) [Example 35, 5-(4-Amino-2-ethoxymethyl-1H-imidazo[4,5-c]quinolin-1-yl)pentan-2-one O-methyloxime hydrochloride]",189 to 192
2,"CCOCc1nc2c(N)nc3ccccc3c2n1CCCC(C)=NOCc1ccccc1 (as salt: hydrochloride) [Example 36, 5-(4-Amino-2-ethoxymethyl-1H-imidazo[4,5-c]quinolin-1-yl)pentan-2-one O-benzyloxime hydrochloride]",184 to 186
3,"CCCc1nc2c(N)nc3cccnc3c2n1CCCCN(OC)C(C)=O [Example 1, N-[4-(4-Amino-2-propyl-1H-imidazo[4,5-c]-1,5-naphthyridin-1-yl)butyl]-N-methoxyacetamide]",155 to 156
4,"CCCc1nc2c(N)nc3cccnc3c2n1CCCCN(OC)C(=O)c1ccccc1 [Example 2, N-[4-(4-Amino-2-propyl-1H-imidazo[4,5-c][1,5]naphthyridin-1-yl)butyl]-N-methoxybenzamide]",125 to 127
5,"CCCc1nc2c(N)nc3cccnc3c2n1CCCCN(OC)C(=O)NC(C)C [Example 3, N-[4-(4-Amino-2-propyl-1H-imidazo[4,5-c][1,5]naphthyridin-1-yl)butyl]-N′-isopropyl-N-methoxyurea]",161 to 162
6,"CCCCc1nc2c(N)nc3cccnc3c2n1CCC/C(C)=N/OC [Example 4, 5-(4-Amino-2-butyl-1H-imidazo[4,5-c][1,5]naphthyridin-1-yl)-pentan-2-one O-methyloxine]",132 to 134
7,"CCCc1nc2c(N)nc(C)c(C)c2n1CCC/C(C)=N/OC [Example 5, 5-(4-Amino-6,7-dimethyl-2-propyl-1H-imidazo[4,5-c]pyridine-1-yl)pentan-2-one O-methyloxime]",144 to 145.5
8,"CCCc1nc2c(N)nc3ccccc3c2n1CCCCN(OC)C(C)=O [Example 6, N-[4-(4-Amino-2-propyl-1H-imidazo[4,5-c]quinolin-1-yl)butyl]-N-methoxyacetamide]",138 to 140
9,"CCCc1nc2c(N)nc3ccccc3c2n1CCCCN(OC)C(N)=O [Example 7, 1-[4-(4-Amino-2-propyl-1H-imidazo[4,5-c]quinolin-1-yl)butyl]-1-methoxyurea]",179 to 181
10,"CCCc1nc2c(N)nc3ccccc3c2n1CCCCN(OC)S(C)(=O)=O [Example 8, N-[4-(4-Amino-2-propyl-1H-imidazo[4,5-c]quinolin-1-yl)butyl]-N-methoxymethanesulfonamide]",178 to 188
11,CCCc1nc2c(N)nc3ccccc3c2n1CCCCN(OC)C(=O)Nc1ccccc1 [Example 9],164 to 166
12,"CCCc1nc2c(N)nc3ccccc3c2n1CCCC(C)N(OC)C(C)=O (stereo not drawn) [Example 10, N-[4-(4-Amino-2-propyl-1H-imidazo[4,5-c]quinolin-1-yl)-1-methylbutyl]-N-methoxy-acetamide]",140 to 142
13,"CCCc1nc2c(N)nc3ccccc3c2n1CCCC(C)N(OC)C(=O)Nc1ccccc1 (stereo not drawn) [Example 11, 1-[4-(4-Amino-2-propyl-1H-imidazo[4,5-c]quinolin-1-yl)-1-methylbutyl]-1-methoxy-3-phenylurea]",140 to 142
14,"CCCc1nc2c(N)nc3ccccc3c2n1CCCC(C)N(OC)C(=O)NCC (stereo not drawn) [Example 12, 1-[4-(4-Amino-2-propyl-1H-imidazo[4,5-c]quinolin-1-yl)-1-methylbutyl]-3-ethyl-1-methoxyurea]",193 to 194
15,"CCOCc1nc2c(N)nc3ccccc3c2n1CCCC(C)N(OC)S(C)(=O)=O (stereo not drawn) [Example 13, N-[4-(4-Amino-2-ethoxymethyl-1H-imidazo[4,5-c]quinolin-1-yl)-1-methylbutyl]-N-methoxymethanesulfonamide]",146 to 148
16,"CCCc1nc2c(N)nc(C)c(C)c2n1CCCCN(O)C(=O)OC(C)(C)C [Example 14, N-[4-(4-Amino-6,7-dimethyl-2-propyl-1H-imidazo[4,5-c]pyridin-1-yl)butyl]-N-[tert-butyl carbamate]hydroxylamine]",157 to 158.5
17,"CCCc1nc2c(N)nc(C)c(C)c2n1CCCCN(O)C(C)=O [Example 15, N-[4-(4-Amino-6,7-dimethyl-2-propyl-1-imidazo[4,5-c]pyridin-1-yl)butyl]-N-hydroxyacetamide]",164 to 166
18,"CCCc1nc2c(N)nc3ccccc3c2n1CCCC(C)N(OC)C(=O)NC1CCCC1 (stereo not drawn) [Example 16, 1-[4-(4-Amino-2-propyl-1H-imidazo[4,5-c]quinolin-1-yl)-1-methylbutyl]-N-methoxy-3-cyclopentylurea]",182 to 184
19,"CCCc1nc2c(N)nc3cc(-c4ccccc4)ccc3c2n1CCCC(C)=NOC [Example 17, 5-(4-Amino-7-phenyl-2-propyl-1H-imidazo[4,5-c]quinolin-1-yl)pentan-2-one O-methyloxime]",191 to 192
20,"CCCc1nc2c(N)nc3cc(-c4ccccc4)ccc3c2n1CCCC(C)N(OC)C(=O)NC(C)C (stereo not drawn) [Example 18, 1-[4-(4-Amino-7-phenyl-2-propyl-1H-imidazo[4,5-c]quinolin-1-yl)-1-methylbutyl]-3-isopropyl-1-methoxyurea]",101 to 103
21,"CCCc1nc2c(N)nc3cccnc3c2n1CCCCN(OC)C(=O)Nc1ccccc1 [Example 19, N-[4-(4-Amino-2-propyl-1H-imidazo[4,5-c][1,5]naphthyridin-1-yl)butyl]-N-methoxy-N′-phenylurea]",155 to 156
22,"CCOCc1nc2c(N)nc3cccnc3c2n1CCCCN(OC)C(C)=O [Example 20, N-[4-(4-amino-2-ethoxymethyl-1H-imidazo[4,5-c][1,5]naphthyridin-1-yl)butyl]-N-Methoxyacetamide]",180 to 181
23,"CCOCc1nc2c(N)nc3cccnc3c2n1CCCCN(OC)C(=O)NC(C)C [Example 21, 1-[4-(4-Amino-2-ethoxymethyl-1H-imidazo[4,5-c][1,5]naphthyridin-1-yl)butyl]-3-isopropyl-1-methoxyurea]",146 to 147
24,"CCCc1nc2c(N)nc3cccnc3c2n1CCCC(C)N(OC)C(C)=O (stereo not drawn) [Example 22, N-Methoxy-N-[4-(4-amino-2-propyl-1H-imidazo[4,5-c][1,5]naphthyridin-1-yl)1-methyl-butyl]acetamide]",158 to 159
25,"CCCc1nc2c(N)nc(C)c(C)c2n1CCCCN(O)C(=O)NC(C)C [Example 23, 1-[4-(4-Amino-6,7-dimethyl-2-propyl-1H-imidazo[4,5-c]pyridin-1-yl)butyl]-1-hydroxy-3-isopropylurea]",138.5 to 140
26,"CCCc1nc2c(N)nc(C)c(C)c2n1CCCCN(O)C(=O)Nc1ccccc1 [Example 24, 1-[4-(4-Amino-6,7-dimethyl-2-propyl-1H-imidazo[4,5-c]pyridine-1-yl)butyl]-1-hydroxy-3-phenylurea]",159 to 160.5
27,"CCCc1nc2c(N)nc(C)c(C)c2n1CCCCN(O)C(=O)c1ccccc1 [Example 25, N-Hydroxy-N-[4-(4-amino-6,7-dimethyl-2-propyl-1H-imidazo[4,5-c]pyridin-1-yl)-butyl]benzamide]",132 to 134
